Active and inactive are the calls of the source. The calls are words filed in the database; no cut-off is given here.
Experiments:
[1] = Cytotoxicity against human KBV cells incubated for 72 hrs by MTT assay; type: functional, cell-based
[2] = Sensitization of vincristine -induced cytotoxicity against human KBV cells assessed as fold change in vincristine IC50 at 2.5 uM incubated for 72 hrs by MTT assay relative to vincristine alone; type: functional
[3] = Sensitization of vincristine -induced cytotoxicity against human KBV cells assessed as fold change in vincristine IC50 at 5 uM incubated for 72 hrs by MTT assay relative to vincristine alone; type: functional
[4] = Sensitization of paclitaxel-induced cytotoxicity against human KBV cells assessed as fold change in paclitaxel IC50 at 5 uM incubated for 72 hrs by MTT assay relative to paclitaxel alone; type: functional
[5] = Sensitization of vincristine -induced cytotoxicity against human KBV cells assessed as fold change in vincristine IC50 at 10 uM incubated for 72 hrs by MTT assay relative to vincristine alone; type: functional
[6] = Sensitization of paclitaxel-induced cytotoxicity against human KBV cells assessed as fold change in paclitaxel IC50 at 2.5 uM incubated for 72 hrs by MTT assay relative to paclitaxel alone; type: functional
[7] = Sensitization of paclitaxel-induced cytotoxicity against human KBV cells assessed as fold change in paclitaxel IC50 at 10 uM incubated for 72 hrs by MTT assay relative to paclitaxel alone; type: functional
KBV [8] = assay: Anti-tumor activity against human KBV cells xenografted in male BALB/c nude mouse assessed as reduction in tumor volume at 30 mg/kg administered every days for 18 days; type: functional, organism-based; details: time 18.0 day
[9] = Cytotoxicity against human KBV cells assessed as paclitaxel induced cytotoxicity by measuring cell survival at 10 uM measured after 72 hrs by MTT assay relative to control; type: functional
[10] = Aqueous solubility of the compound in deionized water measured after 24 hrs by UV-vis spectrophotometric analysis; type: physicochemical; details: buffer
[11] = Reversal of multi-drug resistance in human KBV cells assessed as paclitaxel induced cytotoxicity by measuring cell survival at 10 uM measured after 72 hrs by MTT assay relative to control; type: functional
[12] = biological target: ATP-dependent translocase ABCB1 (Homo sapiens, UniProt P08183); assay: Induction of thermal stabilization of p-glycoprotein in human KBV cells at 50 uM pre-treated with cells for 24 hrs and measured after 2 hrs by CESTA; type: cell-based; details: 26 h
KBV [13] = assay: Induction of Rh123 accumulation in human KBV cells at 10 uM incubated for 150 mins by flow cytometry analysis; type: functional, cell-based
KBV [14] = assay: Induction of cell cycle arrest in human KBV cells assessed as accumulation of cells at G2/M phase at 10 uM incubated for 24 hrs by PI staining based flow cytometry analysis; type: functional
KBV [15] = assay: Induction of cell cycle arrest in human KBV cells assessed as accumulation of cells at G2/M phase at 10 uM in presence of paclitaxel incubated for 24 hrs by PI staining based flow cytometry analysis; type: functional
KBv200 = assay: Effect on p-glycoprotein expression level in human KBv200 cells at 2.5 to 10 uM measured after 4 hrs by Western blot analysis; type: functional, cell-based; details: dose 2.5-10 µM
KBV [16] = assay: Induction of cell cycle arrest in human KBV cells assessed as accumulation of cells at G2/M phase in presence of paclitaxel incubated for 24 hrs by PI staining based flow cytometry analysis; type: functional; details: dose 2.5-10 µM
[17] = Drug accumulation in human KB cells […] at 10 uM measured after 4 hrs by UPLC-MS analysis; type: ADME, cell-based
KBV [18] = assay: Anti-tumor activity against human KBV cells xenografted in male BALB/c nude mouse assessed as reduction in tumor volume at 10 mg/kg administered once daily for 18 days; type: functional, organism-based; details: time 18.0 day
KBV [19] = assay: Induction of apoptosis in human KBV cells in presence of paclitaxel incubated for 24 hrs by PI staining based flow cytometry analysis; type: functional, cell-based; details: dose 2.5-10 µM
[20] = Drug accumulation in human KBV cells expressing p-glycoprotein at 10 uM measured after 4 hrs by UPLC-MS analysis; type: ADME, cell-based

ATP-dependent translocase ABCB1, sequence (P08183 whole entry): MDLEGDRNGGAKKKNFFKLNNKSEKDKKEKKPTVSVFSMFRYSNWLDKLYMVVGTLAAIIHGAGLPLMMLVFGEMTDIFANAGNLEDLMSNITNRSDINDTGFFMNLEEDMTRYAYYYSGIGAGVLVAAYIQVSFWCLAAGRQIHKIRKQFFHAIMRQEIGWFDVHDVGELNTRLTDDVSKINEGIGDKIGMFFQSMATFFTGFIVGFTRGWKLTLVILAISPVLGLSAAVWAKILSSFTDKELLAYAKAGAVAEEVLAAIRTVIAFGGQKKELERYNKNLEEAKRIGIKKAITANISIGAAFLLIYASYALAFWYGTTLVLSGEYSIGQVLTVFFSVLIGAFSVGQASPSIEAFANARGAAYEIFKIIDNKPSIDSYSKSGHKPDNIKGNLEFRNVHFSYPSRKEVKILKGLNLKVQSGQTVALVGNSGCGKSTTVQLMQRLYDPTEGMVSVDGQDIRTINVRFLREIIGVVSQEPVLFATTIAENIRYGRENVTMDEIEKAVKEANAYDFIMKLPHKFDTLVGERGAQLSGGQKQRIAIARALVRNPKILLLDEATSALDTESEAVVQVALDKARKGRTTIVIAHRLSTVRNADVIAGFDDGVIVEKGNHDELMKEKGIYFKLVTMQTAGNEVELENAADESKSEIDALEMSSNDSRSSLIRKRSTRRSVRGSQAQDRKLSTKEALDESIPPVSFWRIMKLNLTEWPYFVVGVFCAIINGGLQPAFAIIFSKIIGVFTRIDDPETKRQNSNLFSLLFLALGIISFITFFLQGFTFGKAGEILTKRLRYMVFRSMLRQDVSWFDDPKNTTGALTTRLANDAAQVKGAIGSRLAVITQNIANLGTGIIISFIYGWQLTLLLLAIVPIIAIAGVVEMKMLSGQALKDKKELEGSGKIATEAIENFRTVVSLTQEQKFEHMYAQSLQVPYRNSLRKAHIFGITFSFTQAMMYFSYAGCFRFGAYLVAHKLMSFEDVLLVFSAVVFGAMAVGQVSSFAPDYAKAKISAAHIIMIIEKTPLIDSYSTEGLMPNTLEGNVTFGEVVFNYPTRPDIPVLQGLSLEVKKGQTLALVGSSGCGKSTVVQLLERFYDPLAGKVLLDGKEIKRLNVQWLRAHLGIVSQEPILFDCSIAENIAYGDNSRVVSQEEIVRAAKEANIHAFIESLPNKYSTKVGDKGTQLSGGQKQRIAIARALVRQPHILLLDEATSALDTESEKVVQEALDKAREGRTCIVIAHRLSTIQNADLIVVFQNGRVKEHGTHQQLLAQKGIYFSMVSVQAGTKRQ

Row | Structure (SMILES) | IC50 [1] [nM] | fold change (FC) [2] | fold change (FC) [3] | fold change (FC) [4] | fold change (FC) [5] | fold change (FC) [6] | fold change (FC) [7] | Activity [9] [%] | solubility [10] | Activity [11] [%] | other results
1 | CC[C@]1(O)C[C@H]2CN(CCc3c([nH]c4ccccc34)[C@@](C(=O)OC)(c3cc4c(cc3OC)N(C=O)[C@H]3[C@@](O)(C(=O)OC)[C@H](OC(C)=O)[C@]5(CC)C=CCN6CC[C@]43[C@@H]65)C2)C1 [VINCRISTINE] | 469 | – | – | – | – | – | – | – | – | – | –
2 | O[C@@H](COc1cccc2ncccc12)CN1CCN([C@@H]2c3ccccc3[C@@H]3[C@H](c4ccccc42)C3(F)F)CC1 [ZOSUQUIDAR] | – | 9.01 | 33.85 | 133.98 | 721.86 | 45.38 | 449.19 | – | – | – | –
3 | COc1cc2c(cc1OC)CN(CCc1ccc(NC(=O)c3cc(OC)c(OC)cc3NC(=O)c3cnc4ccccc4c3)cc1)CC2 | – | 16.78 | 30.99 | 824.4 | 744.78 | 391.47 | 1523.35 | – | – | – | –
4 | CC(=O)O[C@H]1C(=O)[C@@]2(C)[C@H]([C@H](OC(=O)c3ccccc3)[C@]3(O)C[C@H](OC(=O)[C@H](O)[C@@H](NC(=O)c4ccccc4)c4ccccc4)C(C)=C1C3(C)C)[C@]1(OC(C)=O)CO[C@@H]1C[C@@H]2O [PACLITAXEL] | 701 | – | – | – | – | – | – | 106 | – | – | Activity (KBV [8]): inactive
5 | CC1(C)CC[C@]2(C(=O)OCc3ccccc3)CC[C@]3(C)C(=CC[C@@H]4[C@@]5(C)Cc6nccnc6[C@@](C)(CO)[C@@H]5CC[C@]43C)[C@@H]2C1 | – | – | – | – | – | – | – | – | soluble | 18.17 | –
6 | CC1(C)CC[C@]2(C(=O)NCCCC(=O)OCCOCCOCCOCCOCCOCCO)CC[C@]3(C)C(=CC[C@@H]4[C@@]5(C)Cc6nccnc6[C@@](C)(CO)[C@@H]5CC[C@]43C)[C@@H]2C1 | – | 2.43 | 6.09 | 6.12 | 14.41 | 2.72 | 103.51 | 86 | soluble | 17.01 | Activity [12]: Active; Activity (KBV [13]): Active; Activity (KBV [14]): inactive; Activity (KBV [15]): Active; Activity (KBv200): inactive; Activity (KBV [16]): Dose-dependent-effect; Drug uptake [17]: Active; Activity (KBV [18]): inactive; Activity (KBV [19]): Dose-dependent-effect; Drug uptake [20]: Active
